How the values were obtained:
[1] = target: T1, human leucocytic elastase (Homo sapiens, UniProt P08246); test: Human leucocytic elastase activity in vitro, photometric, MeO-Suc-Ala-Ala-Pro-Val-p-nitroanilide substrate; assay type: biochemical; conditions: for remaining activity at 20 µM: 20 μM test compound, percentage of 100% controls, read-out: residual activity of human leucocytic elastase; for inhibitory effect on human leucocytic elastase: concentration of 20 μM each in the test, reference substances
T1 construct: purchased Calbiochem
T1 sequence (P08246 30-267): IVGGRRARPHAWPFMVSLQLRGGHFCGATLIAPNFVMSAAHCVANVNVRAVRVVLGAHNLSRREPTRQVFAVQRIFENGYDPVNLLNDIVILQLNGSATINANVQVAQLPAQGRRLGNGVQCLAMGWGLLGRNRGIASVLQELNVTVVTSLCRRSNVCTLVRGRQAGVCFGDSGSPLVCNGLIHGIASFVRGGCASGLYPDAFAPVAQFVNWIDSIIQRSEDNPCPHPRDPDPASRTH
From the text: The effects which differing concentrations of acetyl-11-keto-β-boswellic acid (AKBA) had on the human leucocytic elastase in these three series of measurement are shown as percentage of 100% controls as mean values±S.D. of three independent measurements each.

chymotrypsin = chymotrypsin (Bos taurus, UniProt P00766); test: Chymotrypsin activity in vitro, photometric, MeO-Suc-Ala-Ala-Pro-Phe-p-nitroanilide substrate
human plasmin = target: T2, human plasmin (Homo sapiens, UniProt P00747); test: Plasmin activity in vitro, photometric, substrate D-Ile-Phe-Lys-pNA; assay type: biochemical; conditions: for IC50: human plasmin in vitro, FIG. 2, read-out: half-maximum inhibition constants (IC50) of plasmin activity; for inhibition of plasmin activity, summary in words: in vitro test system, concentrations reachable in human blood after oral olibanum or frankincense extracts
T2 construct: purchased SIGMA
T2 sequence (P00747 581-810 limits assumed): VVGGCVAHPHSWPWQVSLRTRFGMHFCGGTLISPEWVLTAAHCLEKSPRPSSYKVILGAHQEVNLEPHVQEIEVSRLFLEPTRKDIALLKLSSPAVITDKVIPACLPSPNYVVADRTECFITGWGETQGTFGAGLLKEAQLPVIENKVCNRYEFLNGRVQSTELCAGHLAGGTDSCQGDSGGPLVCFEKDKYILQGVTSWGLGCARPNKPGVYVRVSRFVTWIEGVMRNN
T2 sequence (P00747 97-580 partner limits assumed): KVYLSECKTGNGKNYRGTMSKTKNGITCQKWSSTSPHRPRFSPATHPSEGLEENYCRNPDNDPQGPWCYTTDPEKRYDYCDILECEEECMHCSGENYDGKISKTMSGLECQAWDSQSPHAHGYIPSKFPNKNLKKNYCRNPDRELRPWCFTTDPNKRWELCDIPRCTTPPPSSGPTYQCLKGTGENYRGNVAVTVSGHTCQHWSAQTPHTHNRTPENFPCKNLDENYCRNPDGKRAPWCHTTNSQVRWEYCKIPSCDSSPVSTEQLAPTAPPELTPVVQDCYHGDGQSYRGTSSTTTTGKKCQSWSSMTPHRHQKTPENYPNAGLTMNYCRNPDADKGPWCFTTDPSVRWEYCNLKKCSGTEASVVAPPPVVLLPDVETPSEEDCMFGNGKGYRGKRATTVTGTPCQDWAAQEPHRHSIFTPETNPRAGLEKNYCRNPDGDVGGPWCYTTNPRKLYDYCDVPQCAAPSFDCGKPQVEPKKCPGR
Procedure: The activity of human plasmin (SIGMA) was determined photometrically in vitro with the substrate D-Ile-Phe-Lys-pNA (Cs-Szabo et al., Thrombosis Res. 1980, 20: 199-206). The plasmin activity is referred to as the release of p-nitronaniline per minute (nmole/min) from the substrate as mean values±S.D. of n=3 measurements each.

human leucoytic elastase = target: T3, human leucoytic elastase (Homo sapiens, UniProt P08246); conditions: literature, Ying et al. 1991, Biochem. J. 277: 521-526; read-out: Ki values, inhibition of human leucocytic elastase; cited from earlier work
T3 sequence (P08246 30-267): T1 sequence (P08246 30-267)

CC(=O)OC1CCC2(C)C(CCC3(C)C2C(=O)C=C2C4C(C)C(C)CCC4(C)CCC23C)C1(C)C(=O)O (stereo not drawn) [AKBA, acetyl-11-keto-β-boswellic acid]
remaining activity at 20 µM [1]: 18% | IC50 ([1]; substrate concentrations of 50, 100 and 150 μM, 10% DMSO, room temperature, read-out: IC50 values, inhibition of human leucocytic elastase): ~17 µM | chymotrypsin activity, of the control activity (chymotrypsin; 50 μM test compound): 89% | chymotrypsin activity, of the control activity (chymotrypsin; 100 μM test compound): 85% | IC50 (human plasmin): 4 to 6 µM | inhibition of plasmin activity, summary in words (human plasmin): inhibited almost completely

CC(C)c1ccc2c(c1)c(SC(C)(C)C)c(CC(C)(C)C(=O)O)n2Cc1ccc(Cl)cc1 [MK886]
inhibitory effect on human leucocytic elastase [1]: no inhibitory effect

CC(Cc1ccc(O)c(O)c1)C(C)Cc1ccc(O)c(O)c1 (stereo not drawn) [NDGA]
inhibitory effect on human leucocytic elastase [1]: no inhibitory effect

CCCCC/C=C\C/C=C\C/C=C\C/C=C\CCCC(=O)O [arachidonic acid]
inhibitory effect on human leucocytic elastase [1]: no inhibitory effect

C[C@]12CCC(=O)C=C1CC[C@@H]1[C@@H]2[C@@H](O)C[C@@]2(C)[C@H]1CC[C@]2(O)C(=O)CO [cortisol]
inhibitory effect on human leucocytic elastase [1]: no inhibitory effect

CC1(C)[C@@H](O)CC[C@]2(C)[C@H]3C(=O)C=C4[C@@H]5C[C@@](C)(C(=O)O)CC[C@]5(C)CC[C@@]4(C)[C@]3(C)CC[C@@H]12 [glycerrhitinic acid]
inhibitory effect on human leucocytic elastase [1]: no inhibitory effect

C[C@]12CC[C@H]3[C@@H](CCC4=CC(=O)CC[C@@]43C)[C@@H]1CC[C@@H]2O [testosterone]
inhibitory effect on human leucocytic elastase [1]: no inhibitory effect

C[C@H]1[C@H](C)CC[C@]2(C(=O)O)CC[C@]3(C)C(=CC[C@@H]4[C@@]5(C)CC[C@H](O)C(C)(C)[C@@H]5CC[C@]43C)[C@H]12 [ursolic acid]
remaining activity at 20 µM [1]: 11% | chymotrypsin activity, of the control activity (chymotrypsin; 50 μM test compound): 56% | chymotrypsin activity, of the control activity (chymotrypsin; 100 μM test compound): 30% | IC50 (human plasmin): ~15 µM | inhibition of plasmin activity, summary in words (human plasmin): substantially weaker | Ki (human leucoytic elastase): 4 to 6 µM

C[C@H]1[C@H](C)CC[C@]2(C)CC[C@]3(C)C(=CC[C@@H]4[C@@]5(C)CC[C@@H](O)[C@](C)(C(=O)O)[C@@H]5CC[C@]43C)[C@H]12 [β-BA, β-boswellic acid]
inhibition of plasmin activity, summary in words (human plasmin): inhibited almost completely

amyrin
influence on plasmin activity (human plasmin; concentrations up to 50 μM (not shown)): does not influence significantly | inhibition of plasmin activity, summary in words (human plasmin): not effective at all
